Calls of active or inactive are those of the source. The calls are words filed in the database; no cut-off is given here.
Legend:
[1] = test system: A549; experiment: Inhibition of PM2.5 induced TGF-beta1 secretion in human A549 cells at 20 uM by ELISA relative to control; format: functional
[2] = test system: A549; experiment: Inhibition of cell migration in PM2.5 induced human A549 assessed as relative migration rate at 30 uM incubated for 24 hr by wound healing assay (reference value: 129%); format: functional; set-up: scale not given: the % may be the effect or the level left
[3] = test system: A549; experiment: Inhibition of cell invasion in PM2.5 induced human A549 cells assessed as number of cell perforation at 10 uM measured after 24 hrs by Giemsa staining based transwell assay (reference value: 93 +/- 4.04%); format: functional; set-up: scale not given: the % may be the effect or the level left
[4] = target: T1, Serine/threonine-protein kinase AKT (Homo sapiens) (UniProt P31751+Q9Y243+P31749); experiment: Inhibition of PM2.5 induced Akt phosphorylation upregulation in human A549 cells at 30 uM by Western blot analysis relative to control; format: cell-based
T1 sequence (P31749 whole entry, looked up): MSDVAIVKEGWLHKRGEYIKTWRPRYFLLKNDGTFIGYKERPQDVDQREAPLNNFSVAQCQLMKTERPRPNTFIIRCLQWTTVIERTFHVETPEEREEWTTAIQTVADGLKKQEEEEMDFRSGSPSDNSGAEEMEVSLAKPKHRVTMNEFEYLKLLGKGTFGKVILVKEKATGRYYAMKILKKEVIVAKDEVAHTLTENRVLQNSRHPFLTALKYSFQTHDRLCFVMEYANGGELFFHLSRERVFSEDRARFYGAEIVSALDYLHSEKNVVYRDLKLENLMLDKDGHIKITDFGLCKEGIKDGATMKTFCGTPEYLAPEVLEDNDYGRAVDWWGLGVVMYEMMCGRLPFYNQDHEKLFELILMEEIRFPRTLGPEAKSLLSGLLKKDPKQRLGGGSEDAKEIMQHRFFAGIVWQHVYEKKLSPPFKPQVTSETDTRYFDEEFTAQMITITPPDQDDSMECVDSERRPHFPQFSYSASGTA
T1 sequence (P31751 whole entry, looked up): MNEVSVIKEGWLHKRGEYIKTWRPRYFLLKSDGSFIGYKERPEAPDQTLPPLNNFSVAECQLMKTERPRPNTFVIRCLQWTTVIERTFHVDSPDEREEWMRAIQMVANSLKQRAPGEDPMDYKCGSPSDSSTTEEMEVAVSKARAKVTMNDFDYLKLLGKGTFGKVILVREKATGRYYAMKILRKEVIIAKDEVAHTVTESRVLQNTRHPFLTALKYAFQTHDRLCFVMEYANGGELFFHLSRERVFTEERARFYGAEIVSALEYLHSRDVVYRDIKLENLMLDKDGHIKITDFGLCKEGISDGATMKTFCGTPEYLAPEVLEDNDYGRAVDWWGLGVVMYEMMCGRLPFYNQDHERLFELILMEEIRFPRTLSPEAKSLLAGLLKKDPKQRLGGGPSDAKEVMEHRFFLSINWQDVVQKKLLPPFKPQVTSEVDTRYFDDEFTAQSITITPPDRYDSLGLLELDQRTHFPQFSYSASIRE
T1 sequence (Q9Y243 whole entry, looked up): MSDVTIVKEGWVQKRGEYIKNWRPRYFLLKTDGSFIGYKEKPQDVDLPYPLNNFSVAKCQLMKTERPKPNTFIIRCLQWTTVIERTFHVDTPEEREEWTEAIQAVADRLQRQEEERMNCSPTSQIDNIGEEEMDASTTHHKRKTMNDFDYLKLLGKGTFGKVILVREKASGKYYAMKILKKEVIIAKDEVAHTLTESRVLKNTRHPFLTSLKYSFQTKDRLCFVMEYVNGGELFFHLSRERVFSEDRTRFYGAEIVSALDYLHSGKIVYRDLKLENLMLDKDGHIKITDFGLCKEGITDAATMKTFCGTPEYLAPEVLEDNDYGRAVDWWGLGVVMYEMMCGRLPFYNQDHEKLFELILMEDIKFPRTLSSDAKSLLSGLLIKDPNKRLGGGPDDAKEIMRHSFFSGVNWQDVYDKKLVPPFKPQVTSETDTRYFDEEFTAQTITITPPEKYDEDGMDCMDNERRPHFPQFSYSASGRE

[5] = test system: A549; experiment: Cytotoxicity against human A549 cells assessed as reduction in cell viability at 200 uM incubated for 48 hrs by CCK-8 assay relative to control; format: toxicity, cell-based; details: a549, 48 h
[6] = test system: A549; experiment: Inhibition of cell migration in PM2.5 induced human A549 assessed as relative migration rate at 10 uM incubated for 24 hr by wound healing assay (reference value: 129%); format: functional; set-up: scale not given: the % may be the effect or the level left
[7] = test system: A549; experiment: Downregulation of PM2.5 induced vimentin mRNA expression in human A549 cells at 10 uM by qRT-PCR analysis relative to control; format: functional
[8] = test system: A549; experiment: Inhibition of cell migration in PM2.5 induced human A549 at 30 uM incubated for 24 hrs by wound healing assay relative to control; format: functional
[9] = test system: A549; experiment: Inhibition of PM2.5 induced PI3K/Akt activation assessed as inhibition of Snail expression in human A549 cells at 10 to 20 uM; format: cell-based; details: dose 10-20 µM
[10] = test system: A549; experiment: Reversal of PM2.5 induced EMT in human A549 cells at 10 uM by ELISA; format: functional, cell-based
[11] = test system: A549; experiment: Inhibition of cell migration in PM2.5 induced human A549 assessed as scratch migration length at 30 uM incubated for 24 hr by wound healing assay (reference value: 1.757 +/- 0.094 micrometer); format: functional
[12] = test system: A549; experiment: Downregulation of PM2.5 induced vimentin expression in human A549 cells at 10 to 30 uM by Western blot analysis relative to control; format: functional; details: dose 10-30 µM
[13] = test system: A549; experiment: Upregulation of PM2.5 induced mRNA expression in human A549 cells at 20 uM by qRT-PCR analysis; format: functional, cell-based
[14] = test system: A549; experiment: Cytotoxicity against human A549 cells assessed as reduction in cell viability at 1.5625 to 25 uM incubated for 48 hrs by CCK-8 assay; format: toxicity, cell-based; details: a549, 48 h, dose 1.5625-25 µM
[15] = target: T1, Serine/threonine-protein kinase AKT (Homo sapiens); experiment: Inhibition of PM2.5 induced Akt phosphorylation upregulation in human A549 cells at 20 uM by Western blot analysis relative to control; format: cell-based
[16] = test system: A549; experiment: Inhibition of PM2.5 induced PI3K upregulation in human A549 cells at 20 uM by Western blot analysis relative to control; format: functional
[17] = test system: A549; experiment: Downregulation of PM2.5 induced fibronectin mRNA level in human A549 cells at 20 uM by qRT-PCR analysis; format: functional, cell-based
[18] = test system: A549; experiment: Inhibition of PM2.5 induced Akt phosphorylation in human A549 cells at 10 to 30 uM […]; format: functional, cell-based; details: dose 10-30 µM
[19] = test system: A549; experiment: Inhibition of PM2.5 induced PI3K upregulation in human A549 cells at 30 uM by Western blot analysis relative to control; format: functional
[20] = test system: A549; experiment: Downregulation of PM2.5 induced CXCL12 expression in human A549 cells at 10 uM by ELISA relative to control; format: functional
[21] = test system: A549; experiment: Inhibition of PM2.5 induced PI3K/Akt activation assessed as inhibition of Slug expression in human A549 cells at 10 to 20 uM; format: cell-based; details: dose 10-20 µM
[22] = test system: A549; experiment: Inhibition of cell invasion in PM2.5 induced human A549 cells assessed as number of cell perforation at 30 uM measured after 24 hrs by Giemsa staining based transwell assay (reference value: 93 +/- 4.04%); format: functional; set-up: scale not given: the % may be the effect or the level left
[23] = test system: A549; experiment: Inhibition of cell invasion in PM2.5 induced human A549 cells assessed as reduction in cell invasiveness at 30 uM measured after 24 hrs by Giemsa staining based transwell assay relative to control; format: functional; set-up: scale not given: the % may be the effect or the level left
[24] = test system: A549; experiment: Inhibition of cell migration in PM2.5 induced human A549 assessed as scratch migration length at 10 uM incubated for 24 hr by wound healing assay (reference value: 1.757 +/- 0.094 micrometer); format: functional
[25] = test system: A549; experiment: Inhibition of cell migration in PM2.5 induced human A549 assessed as scratch migration length at 30 uM incubated for 0 hr by wound healing assay (reference value: 2.120 +/- 0.132 micrometer); format: functional
[26] = test system: A549; experiment: Inhibition of cell migration in PM2.5 induced human A549 assessed as relative migration rate at 20 uM incubated for 24 hr by wound healing assay (reference value: 129%); format: functional; set-up: scale not given: the % may be the effect or the level left

inhibition [4]: 17.1%
inhibition [15]: 73.6%
Compound: COc1ccc(-c2coc3cc(O)cc(O)c3c2=O)cc1 [BIOCHANIN]
inhibition at 20 µM [1]: 13.1%
Activity [2]: 107%
Activity [3]: 92%
Activity [5]: 19%
Activity [6]: 144%
Activity [7]: 76%
inhibition at 30 µM [8]: 22%
inhibition [9]: Active
Activity [10]: Active
Activity [11]: 1.552 um
Activity [12]: 45%
Activity [13]: Active
Activity [14]: Non-Toxic
inhibition at 20 µM [16]: 50%
Activity [17]: Active
inhibition [18]: Active
inhibition at 30 µM [19]: 63.3%
Activity [20]: 17%
inhibition [21]: Active
Activity [22]: 52%
Activity [23]: 44.1%
Activity [24]: 1.568 um
Activity [25]: 1.854 um
Activity [26]: 171%
